Test results published in patent US20130252930A1 (BIOMARIN PHARMACEUTICAL INC., priority 2010, published 2013).

Tests used:
[1] = biological target: T1, Human C17,20-lyase (microsomal fraction from human testis) (Homo sapiens, UniProt P05093); assay: CYP17 enzymatic assay (% inhibition at 10 nM), version 2 (Biological Example 6); type: biochemical; details: method: tested at 100 nM; human testis microsome, radiometric
T1 construct: using microsomal fraction from human testis (Celsis Cat #S00110) as the enzyme source; tissue Celsis S00110; host or cells: human testis microsomal fraction
T1 sequence (P05093 1-508): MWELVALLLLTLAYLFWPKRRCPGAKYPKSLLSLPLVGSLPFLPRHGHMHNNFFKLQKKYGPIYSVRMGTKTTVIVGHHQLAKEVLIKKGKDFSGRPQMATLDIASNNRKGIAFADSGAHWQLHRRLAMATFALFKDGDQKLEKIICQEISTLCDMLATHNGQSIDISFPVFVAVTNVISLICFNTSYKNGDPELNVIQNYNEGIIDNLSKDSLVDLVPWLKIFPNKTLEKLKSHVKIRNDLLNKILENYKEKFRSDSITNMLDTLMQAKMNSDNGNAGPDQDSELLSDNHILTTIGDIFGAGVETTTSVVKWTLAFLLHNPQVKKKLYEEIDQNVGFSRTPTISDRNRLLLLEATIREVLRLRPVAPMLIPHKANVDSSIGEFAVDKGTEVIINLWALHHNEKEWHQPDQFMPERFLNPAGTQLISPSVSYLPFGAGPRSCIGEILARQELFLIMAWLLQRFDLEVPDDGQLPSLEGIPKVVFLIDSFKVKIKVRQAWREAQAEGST
Protocol: Human C17,20-lyase enzymatic assays were conducted in 200 μL volume in Eppendorf tubes, using microsomal fraction from human testis (Celsis Cat #S00110) as the enzyme source. Total protein concentration of the microsomal fraction is estimated to be 20 mg/ml. Prior to adding the microsomal fractions, reaction mixtures containing 50 mM NaPO4 buffer (pH 7.4), 1 mM MgCl2, 0.1 mM EDTA, 0.1 mM dithiothreitol, 0.5 mM NADPH, 4 μM 17α-hydroxypregnenolone, 1 μL of [21-^3H]-17α-hydroxypregnenolone (American Radiolabeled Chemicals, ART #1663, Specific activity=50-60 Ci/mmol), and the appropriate testing compounds were incubated for 5 minutes in a 37° C. shaking water bath (150 rpm). Following the 5-minute pre-incubation, 5 μL of human testis microsome was added to each of the reaction mixtures (except for the Negative Controls, which received 5 μL of H2O). After 30-minute incubation at 37° C. in shaking water bath (150 rpm), reactions were stopped by addition of 200 μL of cold chloroform and vigorous shaking for 30 minutes. Tubes were centrifuged at 1,500×g for 15 minutes at 4° C., and the aqueous phase was transferred to fresh Eppendorf tubes. Forty microliters (40 μL) of 8.5% charcoal (Sigma Cat #C6241) suspension was added to each tube, mixed well and incubated at 4° C. for 30 minutes. Tubes were centrifuged at 1,500×g for 15 minutes at 4° C., and 100 μL upper layer from each tube was transferred into each well of a 96-well isoplate (PerkinElmer Cat #6005040). Finally, 100 μL of Optiphase supermix scintillation fluid (PerkinElmer Cat #1200430) was added to each well, mixed by pippeting up and down 3 times. Radioactivity was measured with MicroBeta Trilux Counter using tritium program.
All testing compounds were dissolved and diluted in methanol. Two microliters (2 μL) of the properly diluted test compound was added to each reaction to reach the desired concentration. In Negative control (no enzyme activity) and Activity control (100% enzyme activity), 2 μL of methanol was added. Each data point was tested in duplicate. […]
For compounds of further interest, IC50 value was generated by measuring the inhibition rate at 5 concentrations and using Prism software under “non-linear regression analysis.”

[2] = Rat liver microsome stability assay (Biological Example 8a); details: liver microsomes, pH 7.4
Protocol: (§1) Each test compound (1.5 μM, 30 μL) was incubated with rat (BD Gentest, Cat No. 452501) or human (BD Gentest, Cat No. 452161) liver microsomes (0.75 mg/mL, 0.1 M potassium phosphate buffer, 1.0 mM EDTA, pH 7.4) in 96 well plates. The reaction was started with addition of excess NADPH (5 mg/mL, 15 μL in 0.1 M potassium phosphate buffer, 1.0 mM EDTA, pH 7.4), the total volume is 45 μL (compound final concentration was 1 μM). The incubations were terminated at time zero and at 5, 15, 30, and 60 minutes by addition of 135 μL/excess ACN containing internal standard (1S). After quenching, the reaction mixtures was centrifuged (Eppendorf Centrifuge 5810R) at 3220×g for 10 min (4° C.). 50 μL of the supernatant was transferred from each well into a 96-well sample plate containing 50 μL of ultra-pure water (Millipore) for LC-MS/MS analysis. The half-life T1/2=0.693/K (K is the rate constant from a plot of log [concentration] vs. incubation time) was calculated.

[3] = Human liver microsome stability assay (Biological Example 8b); details: liver microsomes, pH 7.4
Protocol: The reaction was started with addition of excess NADPH (5 mg/mL, 15 μL in 0.1 M potassium phosphate buffer, 1.0 mM EDTA, pH 7.4), the total volume is 45 μL (compound final concentration was 1 μM). […] 50 μL of the supernatant was transferred from each well into a 96-well sample plate containing 50 μL of ultra-pure water (Millipore) for LC-MS/MS analysis.

[4] = biological target: T2, CYP17 (human testicular microsome) (Homo sapiens, UniProt P05093); assay: CYP17 enzymatic assay (IC50) (Biological Example 4); type: biochemical; details: human testicular microsome, DHEA by ELISA; read-out: Biological Example No. 4: CYP17 enzymatic assay IC50
T2 construct: using microsomal fraction from human testis (Celsis Cat #S00110) as the enzyme source; tissue Celsis S00110; host or cells: human testis microsomal fraction
T2 sequence (P05093 1-508): T1 sequence (P05093 1-508)

[5] = biological target: T2, CYP17 (human testicular microsome); assay: CYP17 enzymatic assay (% inhibition at 10 nM), version 1 (Biological Example 5); type: biochemical; details: 10 nM compound, DHEA by ELISA, read-out: Biological Example No. 5: CYP17 percent inhibition at 10 nM (version 1)
[6] = in vitro; details: rat, microsomes, pH 7.4
Protocol: as §1

Compound | Biological Example No. 6: CYP17 percent inhibition (version 2) [1] | half-life at 1 μM [2] | half-life at 1 μM [3] | IC50 [4] | inhibition at 0.01 µM [5] | half-life at 1 μM [6]
C[C@]12CCC3C(CCN4C(=O)CC=CC[C@]34C)C1CC=C2c1cccnc1 (stereo partly drawn) [Compound 34, (11aR,13aS)-11a,13a-dimethyl-1-(pyridin-3-yl)-3b,4,5,8,11,11a,11b,12,13,13a-decahydro-3H-azepino[2,1-a]cyclopenta[f]isoquinolin-7(3aH)-one] | F (F means the compound had a percent inhibition of greater than or equal to 38%) | 1 to 10 min |  |  |  | 
C[C@]12CCOC(=O)C[C@@H]1CC[C@@H]1[C@@H]2CC[C@]2(C)C(c3cccnc3)=CC[C@@H]12 [Compound 112, (1S,2S,8S,12S,16S,11R)-2,16-dimethyl-15-(3-pyridyl)-5-oxatetracyclo[9.7.0.0^2,8.0^12,16]octadec-14-en-6-one] | F (F means the compound had a percent inhibition of greater than or equal to 38%) | 10 to 60 min | 1 to 50 min | < 11 nM |  | 
C[C@]12CCC(=O)OC[C@@H]1CC[C@@H]1[C@@H]2CC[C@]2(C)C(c3cccnc3)=CC[C@@H]12 [Compound 113, (1S,12S,16S,2R,8R,11R)-2,16-dimethyl-15-(3-pyridyl)-6-oxatetracyclo[9.7.0.0^2,8.0^12,16]octadec-14-en-5-one] | F (F means the compound had a percent inhibition of greater than or equal to 38%) | 10 to 60 min | 1 to 50 min | < 11 nM |  | 
C[C@]12CCC3C(CCN4C(=O)C=CCC[C@]34C)C1CC=C2c1cccnc1 (stereo partly drawn) [Compound 35, (11aR,13aS)-11a,13a-dimethyl-1-(pyridin-3-yl)-3b,4,5,10,11,11a,11b,12,13,13a-decahydro-3H-azepino[2,1-a]cyclopenta[f]isoquinolin-7(3aH)-one] | F (F means the compound had a percent inhibition of greater than or equal to 38%) |  |  |  |  | 
COc1cncc(C2=CC[C@H]3[C@@H]4CC[C@H]5COC(=O)CC[C@]5(C)[C@H]4CC[C@]23C)c1 [Compound 115, (1S,12S,16S,2R,8R,11R)-15-(5-methoxy(3-pyridyl))-2,16-dimethyl-6-oxatetracyclo[9.7.0.0^2,8.0^12,16]octadec-14-en-5-one] | F (F means the compound had a percent inhibition of greater than or equal to 38%) |  |  |  |  | 
C[C@]12CCCCC1=CC[C@@H]1[C@@H]2CC[C@]2(C)C(c3cccnc3)=CC[C@@H]12 [Compound 67, 3-((10R,13S)-10,13-dimethyl-2,3,4,7,8,9,10,11,12,13,14,15-dodecahydro-1H-cyclopenta[a]phenanthren-17-yl)pyridine] |  |  |  |  | 50 to 80% | 1 to 10 min
CCOc1cncc(C2=CC[C@H]3[C@@H]4CC[C@H]5COC(=O)CC[C@]5(C)[C@H]4CC[C@]23C)c1 [Compound 117, (1S,12S,16S,2R,8R,11R)-15-(5-ethoxy(3-pyridyl))-2,16-dimethyl-6-oxatetracyclo[9.7.0.0^2,8.0^12,16]octadec-14-en-5-one] | G (G means the compound had a percent inhibition of less than 38% but greater than or equal to 3%) |  |  |  |  | 
